Laboratory results taken from article PMC4485422 (Neuron, 2015).

Biological target: sepiapterin reductase (hSPR) (Homo sapiens, UniProt P35270)
Test: cell-free TR-FRET binding assay

sepiapterin reductase (hSPR), sequence (P35270 whole entry): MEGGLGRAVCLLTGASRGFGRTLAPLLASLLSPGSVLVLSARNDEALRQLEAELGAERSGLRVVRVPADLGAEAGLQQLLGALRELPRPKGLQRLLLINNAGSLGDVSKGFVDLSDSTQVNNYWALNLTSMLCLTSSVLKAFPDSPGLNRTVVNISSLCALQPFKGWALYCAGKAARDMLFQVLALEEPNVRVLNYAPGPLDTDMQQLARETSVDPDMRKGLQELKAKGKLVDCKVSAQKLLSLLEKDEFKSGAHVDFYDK

CC(=O)NCCc1c[nH]c2ccc(O)cc12 [NAS, N-acetylserotonin]
IC50: 1900 nM
